Source: US20260226068A1, “IMIDAZOTRIAZINE IL-17A MODULATORS AND USES THEREOF” (DICE ALPHA, INC., priority 2023, published 2026)

Key:
IL-17A/A = target: T1, IL-17A/A (Homo sapiens, UniProt Q16552); experiment: IL-17A/A HEK-Blue cell assay (SEAP reporter); assay type: cell-based; conditions: HEK-Blue IL-17A reporter cells, IL17A/A 5 ng/mL, 20 hours, SEAP read at A630; read-out: HEK-Blue IL17AA (IC50 for IL-17A/A inhibition)
T1 construct: purchased Genscript Z03228
T1 sequence (Q16552 24-155): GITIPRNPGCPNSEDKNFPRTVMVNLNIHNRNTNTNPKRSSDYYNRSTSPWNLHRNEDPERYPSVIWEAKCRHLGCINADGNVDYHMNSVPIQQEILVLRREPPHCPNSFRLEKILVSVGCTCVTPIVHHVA

IL-17A/F = target: T2, IL-17A/F (Homo sapiens, UniProt Q16552+Q96PD4); experiment: IL-17A/F HEK-Blue cell assay (SEAP reporter); assay type: cell-based; conditions: HEK-Blue IL-17A reporter cells, IL17A/F 5 ng/mL, 20 hours, SEAP read at A630; read-out: HEK-Blue IL17AF (IC50 for IL-17A/F inhibition)
T2 construct: purchased R&D Systems
T2 sequence (Q16552 24-155): T1 sequence (Q16552 24-155)
T2 sequence (Q96PD4 31-163): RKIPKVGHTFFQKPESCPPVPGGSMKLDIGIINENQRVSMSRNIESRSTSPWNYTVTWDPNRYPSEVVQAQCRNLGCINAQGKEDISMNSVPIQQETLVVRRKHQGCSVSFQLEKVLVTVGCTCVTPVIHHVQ

| IC50 (IL-17A/A) | IC50 (IL-17A/F) | SMILES |
| --- | --- | --- |
| 100 to 1000 nM | > 1000 nM | CC(C)c1nocc1C(=O)N[C@H](c1cn2nc(CC3C[C@@H](C(F)(F)F)CNC3=O)cnc2n1)C1CCC(F)(F)CC1 (stereo partly drawn) [Compound 8, N—((S)-(4,4-difluorocyclohexyl)(2-(((5R)-2-oxo-5-(trifluoromethyl)piperidin-3-yl)methyl)imidazo[1,2-b][1,2,4]triazin-6-yl)methyl)-3-isopropylisoxazole-4-carboxamide] |
| < 100 nM | > 1000 nM | O=C(N[C@H](c1cn2nc(CC3C[C@@H](C(F)(F)F)CNC3=O)cnc2n1)C1CCC(F)(F)CC1)c1conc1C1CC1 (stereo partly drawn) [Compound 9, 3-cyclopropyl-N—((S)-(4,4-difluorocyclohexyl)(2-(((5R)-2-oxo-5-(trifluoromethyl)piperidin-3-yl)methyl)imidazo[1,2-b][1,2,4]triazin-6-yl)methyl)isoxazole-4-carboxamide] |
| 100 to 1000 nM | > 1000 nM | O=C(N[C@H](c1cn2nc(CC3C[C@@H](C(F)(F)F)CNC3=O)cnc2n1)C1CCC(F)(F)CC1)c1conc1C(F)(F)F (stereo partly drawn) [Compound 10, N—((S)-(4,4-difluorocyclohexyl)(2-(((5R)-2-oxo-5-(trifluoromethyl)piperidin-3-yl)methyl)imidazo[1,2-b][1,2,4]triazin-6-yl)methyl)-3-(trifluoromethyl)isoxazole-4-carboxamide] |
| 100 to 1000 nM | > 1000 nM | CCc1nonc1C(=O)N[C@H](c1cn2nc(CC3C[C@@H](C(F)(F)F)CNC3=O)cnc2n1)C1CCC(F)(F)CC1 (stereo partly drawn) [Compound 11, N—((S)-(4,4-difluorocyclohexyl)(2-(((5R)-2-oxo-5-(trifluoromethyl)piperidin-3-yl)methyl)imidazo[1,2-b][1,2,4]triazin-6-yl)methyl)-4-ethyl-1,2,5-oxadiazole-3-carboxamide] |
| < 100 nM | > 1000 nM | CC(C)c1nonc1C(=O)N[C@H](c1cn2nc(CC3C[C@@H](C(F)(F)F)CNC3=O)cnc2n1)C1CCC(F)(F)CC1 (stereo partly drawn) [Compound 12] |
| < 100 nM | > 1000 nM | O=C(N[C@H](c1cn2nc(CC3C[C@@H](C(F)(F)F)CNC3=O)cnc2n1)C1CCC(F)(F)CC1)c1nonc1C1CC1 (stereo partly drawn) [Compound 13, 4-cyclopropyl-N—((S)-(4,4-difluorocyclohexyl)(2-(((5R)-2-oxo-5-(trifluoromethyl)piperidin-3-yl)methyl)imidazo[1,2-b][1,2,4]triazin-6-yl)methyl)-1,2,5-oxadiazole-3-carboxamide] |
| 100 to 1000 nM | > 1000 nM | CC(C)n1nccc1C(=O)N[C@H](c1cn2nc(CC3C[C@H](C(F)(F)F)CNC3=O)cnc2n1)C1CCC(F)(F)CC1 (stereo partly drawn) [Compound 15, N—((S)-(4,4-difluorocyclohexyl)(2-(((5S)-2-oxo-5-(trifluoromethyl)piperidin-3-yl)methyl)imidazo[1,2-b][1,2,4]triazin-6-yl)methyl)-1-isopropyl-1H-pyrazole-5-carboxamide] |
| 100 to 1000 nM | > 1000 nM | O=C(N[C@H](c1cn2nc(CC3C[C@H](C(F)(F)F)CNC3=O)cnc2n1)C1CCC(F)(F)CC1)c1nonc1C1CC1 (stereo partly drawn) [Compound 16, 4-cyclopropyl-N—((S)-(4,4-difluorocyclohexyl)(2-(((5S)-2-oxo-5-(trifluoromethyl)piperidin-3-yl)methyl)imidazo[1,2-b][1,2,4]triazin-6-yl)methyl)-1,2,5-oxadiazole-3-carboxamide] |
| 100 to 1000 nM | > 1000 nM | CCn1nccc1C(=O)N[C@H](c1cn2nc(CC3C[C@@H](C(F)(F)F)CNC3=O)cnc2n1)C1CCC(F)(F)CC1 (stereo partly drawn) [Compound 24] |
| 100 to 1000 nM | > 1000 nM | CCn1nccc1C(=O)N[C@H](c1cn2nc(C[C@@H]3C[C@@H](C(F)(F)F)CNC3=O)cnc2n1)[C@H]1CC[C@H](C)CC1 [Compound 25] |
| < 100 nM | > 1000 nM | CCn1nccc1C(=O)N[C@H](c1cn2nc(C[C@H]3C[C@@H](C(F)(F)F)CNC3=O)cnc2n1)[C@H]1CC[C@H](C)CC1 [Compound 26] |
| < 100 nM | > 1000 nM | CCn1nccc1C(=O)N[C@H](c1cn2nc(C[C@H]3C[C@@H](C(F)(F)F)CNC3=O)cnc2n1)C1CCC(F)(F)CC1 [Compound 27] |
| 100 to 1000 nM | > 1000 nM | CCn1nccc1C(=O)N[C@H](c1cn2nc(C[C@@H]3C[C@@H](C(F)(F)F)CNC3=O)cnc2n1)C1CCC(F)(F)CC1 [Compound 28] |
| < 100 nM | > 1000 nM | CCn1nccc1C(=O)N[C@H](c1cn2nc(C[C@H]3C[C@@H](C(F)(F)F)CNC3=O)cnc2n1)C(C1CC1)C1CC1 [Compound 29, N—((S)-2,2-dicyclopropyl-1-(2-(((3R,5R)-2-oxo-5-(trifluoromethyl)piperidin-3-yl)methyl)imidazo[1,2-b][1,2,4]triazin-6-yl)ethyl)-1-ethyl-1H-pyrazole-5-carboxamide] |
| < 100 nM | > 1000 nM | CCn1nccc1C(=O)N[C@H](c1cn2nc(C[C@H]3C[C@@H](C(F)(F)F)CNC3=O)cnc2n1)[C@H]1CCCC(F)(F)C1 [Compound 30, N—((S)—((S)-3,3-difluorocyclohexyl)(2-(((3R,5R)-2-oxo-5-(trifluoromethyl)piperidin-3-yl)methyl)imidazo[1,2-b][1,2,4]triazin-6-yl)methyl)-1-ethyl-1H-pyrazole-5-carboxamide] |
| 100 to 1000 nM | > 1000 nM | CC(C)c1nocc1C(=O)N[C@H](c1cn2nc(C[C@H]3C[C@@H](C(F)(F)F)CNC3=O)cnc2n1)C1CCC(F)(F)CC1 [Compound 32] |
| < 100 nM | > 1000 nM | CC(C)n1nccc1C(=O)N[C@H](c1cn2nc(C[C@H]3C[C@@H](C(F)(F)F)CNC3=O)cnc2n1)C1CCC(F)(F)CC1 [Compound 34] |

| IC50 (IL-17A/A) | IC50 (IL-17A/F) | SMILES |
| --- | --- | --- |
| 100 to 1000 nM | > 1000 nM | CCc1nonc1C(=O)N[C@H](c1cn2nc(C[C@H]3C[C@@H](C(F)(F)F)CNC3=O)cnc2n1)C1CCC(F)(F)CC1 [Compound 35] |
| 100 to 1000 nM | > 1000 nM | Cn1nccc1C(=O)N[C@H](c1cn2nc(C[C@H]3C[C@@H](C(F)(F)F)CNC3=O)cnc2n1)C1CCC(F)(F)CC1 [Compound 36] |
| < 100 nM | > 1000 nM | CC(C)c1nonc1C(=O)N[C@H](c1cn2nc(C[C@H]3C[C@@H](C(F)(F)F)CNC3=O)cnc2n1)C1CCC(F)(F)CC1 [Compound 37] |
| 100 to 1000 nM | > 1000 nM | O=C(N[C@H](c1cn2nc(C[C@H]3C[C@@H](C(F)(F)F)CNC3=O)cnc2n1)C1CCC(F)(F)CC1)c1conc1C1CC1 [Compound 38] |
| < 100 nM | > 1000 nM | O=C(N[C@H](c1cn2nc(C[C@H]3C[C@@H](C(F)(F)F)CNC3=O)cnc2n1)C(C1CC1)C1CC1)c1nonc1C1CC1 [Compound 39, 4-cyclopropyl-N—((S)-2,2-dicyclopropyl-1-(2-(((3R,5R)-2-oxo-5-(trifluoromethyl)piperidin-3-yl)methyl)imidazo[1,2-b][1,2,4]triazin-6-yl)ethyl)-1,2,5-oxadiazole-3-carboxamide] |
| 100 to 1000 nM | > 1000 nM | O=C(N[C@H](c1cn2nc(C[C@H]3C[C@@H](C(F)(F)F)CNC3=O)cnc2n1)C1CCC(F)(F)CC1)c1conc1CCF [Compound 40] |
| 100 to 1000 nM | > 1000 nM | CC(C)n1nccc1C(=O)N[C@H](c1cn2nc(C[C@H]3C[C@H](C(F)(F)F)CNC3=O)cnc2n1)C1CCC(F)(F)CC1 [Compound 41] |
| 100 to 1000 nM | > 1000 nM | O=C(N[C@H](c1cn2nc(C[C@H]3C[C@@H](C(F)(F)F)CNC3=O)cnc2n1)C1CCC(F)(F)CC1)c1conc1C(F)(F)F [Compound 42] |
| < 100 nM | > 1000 nM | O=C(N[C@H](c1cn2nc(C[C@H]3C[C@@H](C(F)(F)F)CNC3=O)cnc2n1)C1CCC(F)(F)CC1)c1nonc1C1CC1 [Compound 43] |
| < 100 nM | 100 to 1000 nM | CCn1nccc1C(=O)N[C@H](c1cn2nc(C[C@H]3C[C@@H](C(F)(F)F)CNC3=O)c(N3CCOCC3)nc2n1)C1CCC(F)(F)CC1 [Compound 46] |
| < 100 nM | > 1000 nM | CCn1nccc1C(=O)N[C@H](c1cn2nc(CC3C[C@@H](C(F)(F)F)CNC3=O)c(N3CCOCC3)nc2n1)C1CCC(F)(F)CC1 (stereo partly drawn) [Compound 47] |
| 100 to 1000 nM | > 1000 nM | O=C(N[C@H](c1cn2nc(C[C@H]3C[C@H](C(F)(F)F)CNC3=O)cnc2n1)C1CCC(F)(F)CC1)c1nonc1C1CC1 [Compound 53] |
| < 100 nM | > 1000 nM | O=C(N[C@H](c1cn2nc(CC3C[C@@H](C(F)(F)F)CNC3=O)c(N3CCOCC3)nc2n1)C1CCC(F)(F)CC1)c1nonc1C1CC1 (stereo partly drawn) [Compound 57] |
| < 100 nM | 100 to 1000 nM | CCn1nccc1C(=O)N[C@H](c1cn2nc(CC3C[C@@H](C(F)(F)F)CNC3=O)c(N3CCOCC3)nc2n1)[C@H]1CC[C@H](C)CC1 (stereo partly drawn) [Compound 58] |
| < 100 nM | > 1000 nM | CCn1nccc1C(=O)N[C@H](c1cn2nc(CC3C[C@@H](C(F)(F)F)CNC3=O)c(N3CCOCC3)nc2n1)[C@H]1CC[C@H](C)CC1 (stereo partly drawn) [Compound 59] |
| < 100 nM | > 1000 nM | CC[C@@H](c1ccc(F)cc1)[C@H](NC(=O)c1ccnn1CC)c1cn2nc(C[C@H]3C[C@@H](C(F)(F)F)CNC3=O)cnc2n1 [Compound 60, 1-ethyl-N-((1S,2S)-2-(4-fluorophenyl)-1-(2-(((3R,5R)-2-oxo-5-(trifluoromethyl)piperidin-3-yl)methyl)imidazo[1,2-b][1,2,4]triazin-6-yl)butyl)-1H-pyrazole-5-carboxamide] |
